“Also recorded” adds a separate entry of the source. Where a SMILES comes first, the peptide text is derived from it. [ ]: non-standard residue; d: D form. The star is where a group is joined. 5FAM = O=C1OC2(c3ccc(O)cc3Oc3cc(O)ccc32)c2ccc(C(=O)*)cc21; Pro(cis-4-guanidino) = NC(N)=N[C@@H]1CN[C@H](C(=O)O)C1; Cha = N[C@@H](CC1CCCCC1)C(=O)O; Ahx = NCCCCCC(=O)O
What was measured:
[1] = Stability of the peptides in cell lysate; format: in vitro ADME; settings: 200 µM peptide, 37 °C, RP-HPLC at 488 nm; for Stability in MCF-7 cell lysate: MCF-7 cell lysate 1 mg/mL protein in PBS, time points 0 min, 1 h and 24 h
Protocol: MCF-7 cells were grown to confluency in a T-175 flask. Cells were washed with PBS (12 mL, 4 °C) and subsequently scraped off into PBS (7 mL, 4 °C) and collected in a Falcon tube. The suspension was then sonicated for 3 sec at an amplitude of 30% followed by a 30 sec rest period, and the procedure was repeated three time. The insoluble fraction was removed by centrifugation for 10 min at 12.000 rcf, at 4 °C and the supernatant was transferred to a new tube. […]
Stability of the peptides in cell lysate
The peptides were added (final concentration of 200 µM) to the MCF-7 cell lysate, with a protein concentration adjusted to 1 mg/mL with PBS. Immediately after addition of the peptide to the cell lysate, a sample (80 µL) was taken as the t = 0 min time point. The sample was diluted in MeCN (1:1), kept on ice for 5 min and centrifuged (12.000 rcf, 10 min, 4 °C). The supernatant was filtered and analyzed by analytical RP-HPLC (at 488 nm) using the standard conditions (gradient 70 % to 45 % of B over 20 min at 25 °C).
The stability of the peptides was monitored at time points 0 min, 1 h and 24 h.

[2] = tested on: MCF-7 cells; experiment: Flow cytometry (FACS): overall cellular uptake; format: cell-based; settings: for Fold higher cellular uptake with additional C-terminal hydrophobic residue (FACS): 1 h, 37 °C, versus the peptide without the C-terminal Cha/ChPro; for Total cellular fluorescence after the 24 h rest compared with directly after 1 h incubation (FACS): MCF-7, 1 h incubation at 37 °C, then 24 h rest in DMEM + 10% FBS
Protocol: MCF-7 cells were seeded in a 24-well plate at 150′000 cells/well in DMEM (1 mL, 10% FCS), and allowed to adhere overnight. The medium was removed, the cells were washed with PBS (250 μL, 1x) and incubated with the peptide solution at 20 μM, 10 μM, 5 μM or 2.5 μM in medium (200 μL, 1% FCS) for 1 h at 37 °C. The medium was removed, and the cells were washed with PBS (250 μL, 2x). Trypsin (100 μL, 0.05%) was added, and the cells were incubated at 37 °C for 5 min. D-PBS with Mg^2+ and Ca^2+ (300 μL, 4 °C) was added, the cells were resuspended and centrifuged for 5 min at 0.4 rcf. The supernatant was carefully removed, and the cells were resuspended in a solution of PBS containing 1.5 μM PI and 2 mM EDTA (400 μL at 4 °C). The cells were added to FACS tubes and kept on ice prior to analysis. Each sample contained 10′000 cells and was analyzed in triplicate. Each experiment was repeated three times.
For the experiments that included the 24 h rest period, the peptides were incubated as described above. After the 1 h incubation time, the cells were washed with PBS (250 μL, 2x), DMEM (250 μL, 10% FBS) was added, and the cells were kept at 37 °C, 5% CO2 for 24 h. For a direct comparison of the effect of a 24 h rest period, another set of peptides was incubated with the cells for 1 h. Then, cells of both sets of experiments (1 h followed by the 24 h rest period versus 1 h incubation) were washed with PBS, treated with trypsin, and prepared for FACS analysis as described above. Each sample was run in triplicate and was repeated three times. […]
MCF-7 cells were obtained from the American Type Culture Collection (ATCC).
The cells were grown in a humidified 5% CO2 atmosphere at 37 °C Dulbecco’s Modified Eagle’s Medium (DMEM), high glucose, GlutaMAXTM (4 mM) supplemented with L-glutamine (4 mM), gentamicin (10 mg/L), […]
Fluorescence-Activated Cell Sorting (FACS) analyzer
On a BD LSRFortessa flow cytometer, CF was excited at 488 nm and monitored with 530/30 bandpass, PI was excited at 561 nm and monitored with a 610/20 bandpass. Mean fluorescence values were determined from the histograms using FlowJo 10.0.6 software while dead cells were removed according to PI staining.
Below is an example, CF-Ahx-(ChaZZ)3, of gating, set on untreated cells and propagated to all samples.
Each sample was run in triplicate, and each experiment was repeated at least three times.
(1 picture or pasted object on this page, not shown here)

Compound	metabolised at 24 h ([1]; human, cells or culture medium, lysate 1 mg/mL protein in PBS, after 24 h incubation, read-out: Fraction degraded in MCF-7 cell lysate) [%]	Fold higher cellular uptake with additional C-terminal hydrophobic residue (FACS) ([2]; MCF-7, 5 μM) [fold]	Fold higher cellular uptake with additional C-terminal hydrophobic residue (FACS) ([2]; MCF-7, 10 μM) [fold]	Fold higher cellular uptake with additional C-terminal hydrophobic residue (FACS) ([2]; MCF-7, 20 μM) [fold]	Total cellular fluorescence after the 24 h rest compared with directly after 1 h incubation (FACS) [2]	Stability in MCF-7 cell lysate [1]
N=C(N)N[C@H]1C[C@@H](C(=O)N2C[C@@H](NC(=N)N)C[C@H]2C(=O)N[C@@H](CC2CCCCC2)C(=O)N2C[C@@H](NC(=N)N)C[C@H]2C(=O)N2C[C@@H](NC(=N)N)C[C@H]2C(=O)N[C@@H](CC2CCCCC2)C(=O)N2C[C@@H](NC(=N)N)C[C@H]2C(=O)N2C[C@@H](NC(=N)N)C[C@H]2C(=O)N[C@@H](CC2CCCCC2)C(N)=O)N(C(=O)[C@H](CC2CCCCC2)NC(=O)CCCCCNC(=O)c2ccc3c(c2)C(=O)OC32c3ccc(O)cc3Oc3cc(O)ccc32)C1 [(ChaZZ)3-Cha, CF-Ahx-(ChaZZ)3-Cha-NH2] ({5FAM-Ahx}-[Cha][Pro(cis-4-guanidino)][Pro(cis-4-guanidino)][Cha][Pro(cis-4-guanidino)][Pro(cis-4-guanidino)][Cha][Pro(cis-4-guanidino)][Pro(cis-4-guanidino)][Cha]-NH2)	~6	3	3	1.5	constant or increased	–
CF-Ahx-(ChaZZ)2-Cha-NH2	–	2	4	6	lower; also recorded: Significantly less fluorescence was observed after 24 h	degraded in the MCF-7 cell lysate over time
CF-Ahx-(ChaZZ)3-NH2	–	–	–	–	lower; also recorded: less fluorescence was observed after 24 h	stable

From paper PMC12455572, “Amphipathic Proline-Rich Cell Penetrating Peptides for Targeting Mitochondria” (ACS Chemical Biology, 2025)
